# Experimental data: US7928139B2 (Amgen Inc., priority 2006, dated 2011)
# Molecular target: HIF PHD2 (Homo sapiens, UniProt Q9GZT9)
# Assay: PHD2 inhibition assay (TR-FRET, VCB-Eu detection of hydroxylated P564-HIF1α peptide)
# Format: biochemical
# Conditions: 2 nM PHD2, 100 nM P564-HIF1α peptide, 0.25 μM 2-oxoglutarate, 100 μM FeCl2, 2 mM ascorbic acid
# Method in brief: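 Human PHD2 (2 nM final) preincubated 1 h at room temperature with compound and 100 μM FeCl2 in pH 6 MES buffer, 5% DMSO final. Reaction with 100 nM biotinylated P564-HIF1α peptide, 2 mM ascorbate and 0.25 μM 2-oxoglutarate for 1 h, stopped with succinate. Hydroxylation read by TR-FRET (VCB-Eu/streptavidin-APC, 655/615 nm); IC50 from 4-parameter fit of percent of control.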
# Chain of HIF PHD2 (Q9GZT9 whole entry): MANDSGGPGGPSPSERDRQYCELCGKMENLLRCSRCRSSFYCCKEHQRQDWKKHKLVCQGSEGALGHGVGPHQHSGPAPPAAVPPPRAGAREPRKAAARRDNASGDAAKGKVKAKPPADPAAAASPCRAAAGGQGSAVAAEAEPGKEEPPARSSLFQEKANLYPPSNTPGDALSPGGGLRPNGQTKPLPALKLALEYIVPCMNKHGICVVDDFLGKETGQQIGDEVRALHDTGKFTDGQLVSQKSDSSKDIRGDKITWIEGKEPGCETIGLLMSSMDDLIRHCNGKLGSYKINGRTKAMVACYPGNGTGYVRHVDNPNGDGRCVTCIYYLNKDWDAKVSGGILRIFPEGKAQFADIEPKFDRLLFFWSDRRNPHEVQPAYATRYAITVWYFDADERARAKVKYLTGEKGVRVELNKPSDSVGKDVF
row,Structure (SMILES),IC50 [nM]
1,"CC1(C)C(=O)C(C(=O)NCC(=O)O)=C(O)c2c(F)cccc21 [Example 81, N-((5-Fluoro-4-hydroxy-1,1-dimethyl-2-oxo-naphthalen-3-yl)carbonyl)glycine]",< 100
2,"CC1(C)C(=O)C(C(=O)NCC(=O)O)=C(O)c2c(Cl)cccc21 [Example 82, N-((5-Chloro-4-hydroxy-1,1-dimethyl-2-oxo-naphthalen-3-yl)carbonyl)glycine]",< 100
3,"O=C(O)CNC(=O)C1=C(O)c2cccc(F)c2C2(CCOCC2)C1=O [Example 83, N-((8-Fluoro-4-hydroxy-2-oxo-2′,3′,5′,6′-tetrahydro-spiro[naphthalene-1,4′-pyran]-3-yl)carbonyl)glycine]",< 100
4,"CC1(C#N)C(=O)C(C(=O)NCC(=O)O)=C(O)c2cc(Cl)ccc21 (centres unmarked) [Example 84, N-((6-Chloro-1-cyano-4-hydroxy-1-methyl-2-oxo-naphthalen-3-yl)carbonyl)glycine]",< 100
5,"C[C@@]1(C#N)C(=O)C(C(=O)NCC(=O)O)=C(O)c2cc(Cl)ccc21 [Example 85, N-(((1R)-6-Chloro-1-cyano-4-hydroxy-1-methyl-2-oxo-naphthalen-3-yl)carbonyl)glycine]",< 100
6,"C[C@]1(C#N)C(=O)C(C(=O)NCC(=O)O)=C(O)c2cc(Cl)ccc21 [Example 86, N-(((1S)-6-Chloro-1-cyano-4-hydroxy-1-methyl-2-oxo-naphthalen-3-yl)carbonyl)glycine]",< 100
7,"C[C@@]1(C#N)C(=O)C(C(=O)NCC(=O)O)=C(O)c2ccccc21 [Example 87, N-(((1R)-1-Cyano-4-hydroxy-1-methyl-2-oxo-naphthalen-3-yl)carbonyl)glycine]",< 100
8,"C[C@]1(C#N)C(=O)C(C(=O)NCC(=O)O)=C(O)c2ccccc21 [Example 88, N-(((1S)-1-Cyano-4-hydroxy-1-methyl-2-oxo-naphthalen-3-yl)carbonyl)glycine]",< 100
9,"CC1(C)C(=O)C(C(=O)NCC(=O)O)=C(O)c2cccc(Cl)c21 [Example 89, N-((8-Chloro-4-hydroxy-1,1-dimethyl-2-oxo-naphthalen-3-yl)carbonyl)glycine]",< 100
10,"CC1(C)C(=O)C(C(=O)NCC(=O)O)=C(O)c2ccc(Cl)c(F)c21 [Example 90, N-((7-Chloro-8-fluoro-4-hydroxy-1,1-dimethyl-2-oxo-naphthalen-3-yl)carbonyl)glycine]",< 100
11,"O=C(O)CNC(=O)C1=C(O)c2cc(Cl)ccc2C2(CCN(C(=O)c3ccccc3)CC2)C1=O [Example 91, N-((6-Chloro-4-hydroxy-2-oxo-1′-(phenylcarbonyl)-spiro[naphthalene-1,4′-piperidin]-3-yl)carbonyl)glycine]",< 100
12,"CC1(C)C(=O)C(C(=O)NCC(=O)O)=C(O)c2cc(Cl)c(F)cc21 [Example 92, N-((6-Chloro-7-fluoro-4-hydroxy-1,1-dimethyl-2-oxo-naphthalen-3-yl)carbonyl)glycine]",< 100
13,"O=C(O)CNC(=O)C1=C(O)c2cc(Cl)ccc2C2(CCC2)C1=O [Example 93, N-((6′-Chloro-4′-hydroxy-2′-oxo-spiro[cyclobutane-1,1′-naphthalen]-3′-yl)carbonyl)glycine]",< 100
14,"O=C(O)CNC(=O)C1=C(O)c2ccccc2C2(CCOCC2)C1=O [Example 94, N-((4-hydroxy-2-oxo-2′,3′,5′,6′-tetrahydro-spiro[naphthalene-1,4′-pyran]-3-yl)carbonyl)glycine]",< 100
15,"O=C(N[C@@H](CO)C(=O)O)C1=C(O)c2cc(Cl)ccc2C2(CCOCC2)C1=O [Example 95, N-((6-Chloro-4-hydroxy-2-oxo-2′,3′,5′,6′-tetrahydro-spiro[naphthalene-1,4′-pyran]-3-yl)carbonyl)-L-serine]",100 to 500
16,"CC1(C)C(=O)C(C(=O)NCC(=O)O)=C(O)c2cc(F)c(Cl)cc21 [Example 96, N-((7-Chloro-6-fluoro-4-hydroxy-1,1-dimethyl-2-oxo-naphthalen-3-yl)carbonyl)glycine]",< 100
17,"O=C(O)CNC(=O)C1=C(O)c2cc(F)c(Cl)cc2C2(CCOCC2)C1=O [Example 97, N-((7-Chloro-6-fluoro-4-hydroxy-2-oxo-2′,3′,5′,6′-tetrahydro-spiro[naphthalene-1,4′-pyran]-3-yl)carbonyl)glycine]",< 100
18,"COC/C=C/c1ccc2c(c1)C(C)(C)C(=O)C(C(=O)NCC(=O)O)=C2O [Example 98, N-((4-Hydroxy-1,1-dimethyl-7-((1E)-3-(methyloxy)-1-propen-1-yl)-2-oxo-naphthalen-3-yl)carbonyl)glycine]",< 100
19,"COCCCc1ccc2c(c1)C(C)(C)C(=O)C(C(=O)NCC(=O)O)=C2O [Example 99, N-((4-Hydroxy-1,1-dimethyl-7-(3-(methyloxy)propyl)-2-oxo-naphthalen-3-yl)carbonyl)glycine]",< 100
20,"CNC(=O)C1=C(O)c2cc(Cl)ccc2C(C)(C)C1=O [Example 100, 6-Chloro-4-hydroxy-N,1,1-trimethyl-2-oxo-naphthalene-3-carboxamide]",> 10000
21,"CC1(C)C(=O)C(C(N)=O)=C(O)c2cc(Cl)ccc21 [Example 101, 6-Chloro-4-hydroxy-1,1-dimethyl-2-oxo-naphthalene-3-carboxamide]",> 10000
22,"C[C@@H](NC(=O)C1=C(O)c2cc(Cl)ccc2C(C)(C)C1=O)C(=O)O [Example 102, N-((6-chloro-4-hydroxy-1,1-dimethyl-2-oxo-naphthalen-3-yl)carbonyl)-D-alanine]",> 10000
23,"CC1(C)C(=O)C(C(=O)NCC(=O)O)=C(O)c2cccnc21 [Example 103, 2-(5-Hydroxy-8,8-dimethyl-7-oxo-7,8-dihydroquinoline-6-carboxamido)acetic acid]",< 100
24,"CC1(C)C(=O)C(C(=O)CCC(=O)O)=C(O)c2cc(Br)ccc21 [Example 104, 4-(7-Bromo-1-hydroxy-4,4-dimethyl-3-oxo-3,4-dihydronaphthalen-2-yl)-4-oxobutanoic acid]",< 100
25,"CC1(C)C(=O)C(C(=O)NCC(=O)O)=C(O)c2ccncc21 [Example 105, 2-(5-Hydroxy-8,8-dimethyl-7-oxo-7,8-dihydroisoquinoline-6-carboxamido)acetic acid]",< 100
26,"CC1(C)C(=O)C(C(=O)NCC(=O)O)=C(O)c2ccc(C(=O)O)cc21 [Example 106, 6-((Carboxymethyl)carbamoyl)-7-hydroxy-8,8-dimethyl-5-oxo-5,8-dihydronaphthalene-2-carboxylic acid]",< 100
27,"CC1(C)C(=O)C(C(=O)NCC(=O)O)=C(O)c2ccc(NCCN3CCOCC3)cc21 [Example 107, 2-(2-Hydroxy-1,1-dimethyl-7-(2-morpholinoethylamino)-4-oxo-1,4-dihydronaphthalene-3-carboxamido)acetic acid]",100 to 500
28,"CC1(C)C(=O)C(C(=O)NCC(=O)O)=C(O)c2ccc(/C=C/c3ccccc3)cc21 [Example 108, (E)-2-(2-Hydroxy-1,1-dimethyl-4-oxo-7-styryl-1,4-dihydronaphthalene-3-carboxamido)acetic acid]",< 100
29,"CC1(C)C(=O)C(C(=O)NCC(=O)O)=C(O)c2ccc(CCc3ccccc3)cc21 [Example 109, 2-(2-Hydroxy-1,1-dimethyl-4-oxo-7-phenethyl-1,4-dihydronaphthalene-3-carboxamido)acetic acid]",< 100
